Results published in US9012659B2, “3-(indolyl)- or 3-(azaindolyl)-4-arylmaleimide compounds and their use in tumor treatment” (Johannes Gutenberg—Universitat Mainz, priority 2009, dated 2015).

Assays:
[1] = system: HT-29 human colon adenocarcinoma cells; test: Evaluation of antiproliferative effect (MTT assay); format: cell-based; conditions: 72 h, treatment for 3 days, untreated HT-29 cells: 100%, read-out: Decrease of HT-29 colon cancer cell viability (%)
Description: Cell suspensions (200 μl) containing 10,000 viable cells were plated into each well and incubated over night before exposure with various concentrations of agents. Cells were then incubated with 100 μl of different concentrations of compounds for 3 days at 37° C. with 5% CO2. At the end of the time point (3 days), 10 μl/well of MTT stock solution (5 mg/ml) (Biomol, Germany) were added. […] Each experiment was done in triplicate. […]
The antitumor efficacy of the compounds of the invention was examined against HT-29 human colon adenocarcinoma cells. […] The compound of example 1 of WO 2006/061212 was used as comparative compound.

human HT-29 cancer cells = test: Nicoletti apoptosis assay by cell cycle analysis (sub-G1 fraction); format: cell-based; conditions: combination: compound plus Irinotecan 1.18 μM, agent-free control 3.4 ± 0.9%
Description: Cancer cells were transferred to 12-well flat-bottomed plates. Cell suspensions (1 ml) containing 1.5×10^5 viable cells were plated into each well and incubated over night before exposure with various concentrations of agents. Cells were then incubated in 1 ml medium with various concentrations of single applied moguntinones, irinotecan alone, or with the combinations of moguntinones with irinotecan or topotecan at 37° C. with 5% CO2.
After incubation cells were washed with PBS, trypsinizated, palleted and mixed with propidium-iodide-buffer (containing 0.1% sodium citrate, 0.1% triton X-100, […] propidium-iodide) and incubated for 1 hour at 4° C. Cell cycle sub-G1-fraction analysis was performed as described previously^23 using a FACS cytometer (BD FACS Calibur™, BD Biosciences, Heidelberg, Germany). Each experiment was done in triplicate.
All cells were maintained at 37° C. in an incubator under an atmosphere containing 5% CO2. After incubation the cells were washed with PBS, trypsinized, pelleted and mixed with PI buffer (containing 0.1% sodium citrate, 0.1% triton X-100, […] propidium iodide (PI)) and incubated for 1 hour at 4° C. Cell cycle sub-G1 fraction analysis was performed as described previously (Nicoletti, I. et al. (1991) J. Immunol. Methods 139, 271-279) using a flow cytometer (BD FACS Calibur™, BD Biosciences, Heidelberg, Germany). […]

SMILES	melting point [°C]	viability at 2.6 µM [1] [%]	viability at 7.9 µM [1] [%]	viability at 26 µM [1] [%]	viability at 52 µM [1] [%]	Induction of apoptosis, combination compound plus irinotecan (human HT-29 cancer cells) [%]
COc1cc(C2=C(c3c[nH]c4cccnc34)C(=O)NC2=O)cc(OC)c1OC [Example 12, 3-(4-Azaindol-3-yl)-4-(3,4,5-trimethoxyphenyl)-1H-pyrrol-2,5-dione]	274 to 275					
COc1cc(C2=C(c3c[nH]c4ccc(Br)cc34)C(=O)NC2=O)cc(OC)c1OC [Example 11, 3-(5-Bromo-1H-indol-3-yl)-4-(3,4,5-trimethoxyphenyl)-maleinimide]	259 to 262					
COc1cc(C2=C(c3cn(CCN4CCOCC4)c4ccccc34)C(=O)NC2=O)cc(OC)c1OC [Example 8, 3-{1-(2-Morpholinoethyl)-1H-indol-3-yl}-4-(3,4,5-trimethoxyphenyl)-maleinimide]	238 to 239	81.1 ± 2.99	84.1 ± 2.18	53.39 ± 0.1	39.3 ± 1.31	
COc1cc(C2=C(c3c[nH]c4ccc(F)cc34)C(=O)NC2=O)cc(OC)c1OC [Example 10, 3-(5-Fluoro-1H-indol-3-yl)-4-(3,4,5-trimethoxyphenyl)-maleinimide]	232 to 233					
COc1cc(C2=C(c3cn(CCN)c4ccccc34)C(=O)NC2=O)cc(OC)c1OC.Cl [Example 1, 3-(1-[2-Ammonioethyl]-1H-indol-3-yl)-4-(3,4,5-trimethoxyphenyl)-maleinimide-chloride]	277.1	32.3 ± 1.07	29.3 ± 2.09	12.5 ± 0.39	8.95 ± 0.65	51.00 ± 0.56
COc1cc(C2=C(c3cn(CCCN4CCN(C)CC4)c4ccccc34)C(=O)NC2=O)cc(OC)c1OC [Example 9, 3-{1-[3-(4-Methylhexahydro-1-pyrazindiylium)propyl]-1H-indol-3-yl}-4-(3,4,5-trimethoxyphenyl)-maleinimide dichloride]	225 to 226	66.5 ± 3.1	49.9 ± 1.32	22.6 ± 1.16	15.3 ± 1.21	
COc1cc(C2=C(c3cn(CCN4CCCCC4)c4ccccc34)C(=O)NC2=O)cc(OC)c1OC [Example 7, 3-{1-[2-(Piperidin-1-yl)ethyl]-1H-indol-3-yl}-4-(3,4,5-trimethoxyphenyl)-maleinimide]	179 to 180	86.5 ± 2.16	56.9 ± 3.02	20.1 ± 1.36	24.3 ± 0.98	

The next lines start with results.

melting point [°C]	SMILES	viability at 2.6 µM [1] [%]	viability at 7.9 µM [1] [%]	viability at 26 µM [1] [%]	viability at 52 µM [1] [%]	Induction of apoptosis, combination compound plus irinotecan (human HT-29 cancer cells) [%]
187 to 188	COc1cc(C2=C(c3cn(CCCN(C)C)c4ccccc34)C(=O)NC2=O)cc(OC)c1OC [Example 6, 3-{1-[3-(Dimethylamino)propyl]-1H-indol-3-yl}-4-(3,4,5-trimethoxyphenyl)maleinimide]	39.3 ± 2.6	38.5 ± 2.43	15.8 ± 1.35	19.4 ± 1.32	
160	COc1cc(C2=C(c3cn(CCCO)c4ccccc34)C(=O)NC2=O)cc(OC)c1OC [Example 4, 3-(1-[3-Hydroxypropyl]-1H-indol-3-yl)-4-(3,4,5-trimethoxyphenyl)-maleinimide]	37.9 ± 1.3	34.7 ± 0.78	27.7 ± 1.23	25.4 ± 2.26	
274 to 275	COc1cc(C2=C(c3cn(CCCN)c4ccccc34)C(=O)NC2=O)cc(OC)c1OC.Cl [Example 2, 3-(1-[3-Ammoniopropyl]-1H-indol-3-yl)-4-(3,4,5-trimethoxyphenyl)-maleinimide-chloride]	45.8 ± 3.25	36.4 ± 1.77	17.65 ± 0.13	6.68 ± 0.29	
195 to 196	COc1cc(C2=C(c3cn(CCO)c4ccccc34)C(=O)NC2=O)cc(OC)c1OC [Example 3, 3-(1-[2-Hydroxyethyl]-1H-indol-3-yl)-4-(3,4,5-trimethoxyphenyl)-maleinimide]	68.8 ± 2.48	70.2 ± 3.72	45.7 ± 2.18	28.7 ± 0.55	
184 to 185	COc1cc(C2=C(c3cn(CCN(C)C)c4ccccc34)C(=O)NC2=O)cc(OC)c1OC [Example 5, 3-{1-[2-(Dimethylamino)ethyl]-1H-indol-3-yl}-4-(3,4,5-trimethoxyphenyl)-maleinimide]	68.5 ± 8.69	52.6 ± 0.53	32.2 ± 0.9	15 ± 0.9	
